Assays:
[1] = Measurement of maximum plasma level (Cmax) and bioavailability (BA); type: in vivo; details: male, Crl:CD(SD), po; rat plasma; orally administered solution 10 mg/kg, fasting
Method: Measurement of Maximum Plasma Level (CMax) and Bioavailability (BA)
A test compound is weighed, dissolved in Solutol (trade name; manufactured by BASF-TAKEDA Vitamins Ltd.)/propylene glycol=7/3 which is heated to 60° C. and adjusted to 20 mg/mL; thereafter, the test compound is diluted by 10 times with distilled water for injection, and further diluted by 2 times with saline solution, by which intravenously administered solution is eventually made. The test compound is weighed, dissolved in Solutol (trade name; manufactured by BASF-TAKEDA Vitamins Ltd.)/propylene glycol=7/3 which is heated to 60° C., and adjusted to 20 mg/mL; thereafter, the test compound is diluted by 10 times with distilled water for injection, by which orally administered solution is eventually made. Intravenous administration is performed by rapid single administration (n=3) of intravenously administered solution (1 mg/kg) from the tail vein of Crl:CD(SD) Rat (male, manufactured by CHARLES RIVER LABORATORIES JAPAN, INC). Oral administration is performed by forced administration (n=3) of orally administered solution (10 mg/kg) into the stomach of Crl:CD(SD) Rat (male, manufactured by CHARLES RIVER LABORATORIES JAPAN, INC.) using a sonde. The administration is conducted under fasting conditions; water is freely ingested. A 0.35 mL blood sample is taken from cervical vein by using Heparinized Syringe at 15 minutes, 30 minutes, 1 hour, 2 hours, 4 hours, 6 hours, 8 hours, and 24 hours after administration. The obtained blood is stored in ice, and after centrifugation at 12,000 rpm for 5 minutes, blood plasma is fractionated. The blood plasma is preserved at a temperature of −80° C. The sample of blood plasma preserved at a temperature of −80° C. is dissolved; inner standard solution (100 μL) and acetonitrile (2 mL) are added to the blood plasma sample 100 μL and stirred; and the sample is centrifuged at 2,500 rpm for 10 minutes. After the supernatant is evaporated to dryness by means of a centrifugal concentrator, 67% dimethyl sulfoxide solution (150 μL) is added to the residue and dissolves them again; and 20 μL of the solution is analyzed by means of LC/MS/MS.
The analysis by means of LC/MS/MS should be performed, for example, under the following conditions:
Measurement device: Waters 2795 (manufactured by Waters Corporation)
Analytical column: Unison UK-C18, 3.0 μm particle size, 2.0 mm×30 mm (manufactured by Imtakt Corporation)
Analytical column temperature: Room temperature
Moving bed: 5 mM IPC-PFAA-7 solution/acetonitrile (9/1→1/9)
Measurement device: Quatro micro API (manufactured by Micromass Communications Inc.)
Method for ionization: ES+
Capillary electric potential: 3.30 kV
Source temperature: 120° C.
Desolvation temperature: 350° C.
The monitor ion which was suitable for each sample was selected.
The concentration transition in the rat blood plasma of the test compound is analyzed by means of non-compartment analysis method by using WinNonlin 4.0.1 (manufactured by Pharsight Corporation) to calculate the maximum blood concentration Cmax and the area under the blood concentration curve AUC.
BA is calculated by means of the following formula: BA(%)={(AUCp.o./Dosep.o.)/(AUCi.v./Dosei.v.)}×100
AUCp.o.: AUC in oral administration
Dosep.o.: Amount of the drug orally administered
AUCi.v.: AUC in intravenous administration
Dosei.v.: Amount of the drug intravenously administered

[2] = tested on: DOPA liposome (artificial lipid membrane); test: Artificial lipid membrane binding by using Biacore S51 system; details: 50 μM compound
Method: Artificial Lipid Membrane Binding Account by Using Biacore (Registered Trademark) S51 System
10 mM of 1,2-Dioleoyl-sn-Glycero-3-Phosphate, Monosodium Salt (hereinafter abbreviated as DOPA) chloroform solution was evaporated to dryness by means of an aspirator, and 0.6 mL of PBS/5% dimethyl sulfoxide (hereinafter abbreviated as DMSO) was added. The chloroform solution was fully suspended by means of a vortex mixer, and the freezing and thawing were repeated for 5 times. Liposome was created by means of a liposome adjustment instrument (manufactured by Avestin Inc.) and 2 syringes, and was diluted to 0.5 mM with PBS/5% DMSO just prior to immobilization.
(ii) Measurement Compound Adjustment
The 38 μL of 1×PBS is added to 2 μL DMSO solution (10 mM), and further the 360 μL 1×PBS/5% DMSO was added; the 50 μM of final concentration in the 1×PBS/5% DMSO was adjusted and measured.
All of the following analysis used Biacore® S51 system; the measurement conditions were set by Biacore S51 Control Soft.
The measurement temperature was set to be 37° C., and the 1×PBS/5% DMSO (pH 7.4 or PH 6.0) was used as a buffer. Series S Sensor Chip L1 was used for a sensor chip. The DOPA was immobilized in one of the measuring spots on the sensor surface, and the central spot was used as a reference.
Immobilization of liposome was conducted at a flow rate of 10 μL/min for about 3 minutes; then the compound was added at a flow rate of 30 μL/min and the interaction was measured. The measurement conditions are as follows:
Assay buffer: PBS/5% DMSO (pH 7.4 or PH 6.0)
Measurement temperature: 37° C.
Sensor chip: Series S Sensor Chip L1
Flow rate: 10 μL/min at the time of the liposome immobilization; 30 μL/min at the time of the measurement of interaction with the compound
Regeneration: 20 mM CHAPS (3-[(3-Cholamidopropyl)dimethylammonio]-1-propanesulfonate), Isopropanol/50 mM sodium hydroxide solution=40/60 (volume ratio) mixture (60 seconds)
The data processing was conducted by means of method of Abdiche et al. (Analytical biochemistry, 328, 233-243 (2004)) by using Biacore S51 Evaluation Soft.
Regarding the value of binding response (RU) in which the value of reference was subtracted, it was divided by a sample molecular weight after minute error of the DMSO concentration included in the sample solution was corrected. In addition, the value obtained here was divided by an amount of capture at the time of the cycle because the value obtained here was proportional to the amount of capture of the liposome; further, the value was multiplied by a million to be considered as a corrected value (Corrected value=1000000)×RU (test compound)/molecular quantity (test compound) RU (liposome)).
Propranolol, Amiodarone, Desipramine, Imipramine and Procaine were added as the controls, and it was recognized that the variation of the binding response was within ca. 10 to 15%.
The compound, in which a value of the binding response after the correction was equal to or more than 150, was determined as positive.

CC(C)(C)CN1CCC2(CCN(Cc3ccc(C(=O)N(Cc4ncc[nH]4)Cc4ncc[nH]4)cc3)CC2)C1 [Example 8 (114), 4-{[2-(2,2-dimethylpropyl)-2,8-diazaspiro[4.5]dec-8-yl]methyl}-N,N-bis(1H-imidazol-2-ylmethyl)benzamide]
Cmax [1]: 46 ng/mL
Judgement (phospholipidosis inductive effect) ([2]; DOPA liposome): negative
Corrected value of binding response (RU) ([2]; DOPA liposome on Sensor Chip L1, 37° C., PBS/5% DMSO (pH 7.4 or PH 6.0)): 80.7 RU

From patent publication US8519124B2, “Chemokine receptor antagonists and use thereof” (Ono Pharmaceutical Co., Ltd., priority 2005, dated 2013)
